Test [1] addresses T1, human GLP-1 receptor (Homo sapiens, UniProt P43220).
T1 construct: expressed in transfected cells; host or cells: BHK cells (parent line BHKTS13), clone FCW467-12A; membrane preparation
Put plainly: In vitro potency: CRE luciferase reporter gene assay in BHK cells expressing the human GLP-1 receptor. The class given is cell-based. To be noted: whole cell reporter gene assay, BHK cells, human GLP-1 receptor; average of at least two replicates; read-out: EC50. The procedure: The purpose of this example is to test the activity, or potency, of the GLP-1 derivatives in vitro. The in vitro potency is the measure of human GLP-1 receptor activation in a whole cell assay.
In vitro potency was determined by measuring the response of the human GLP-1 receptor in a reporter gene assay. The assay was performed in a stably transfected BHK cell line that expresses the human GLP-1 receptor and contains the DNA for the cAMP response element (CRE) coupled to a promoter and the gene for firefly luciferase (CRE luciferase). When the human GLP-1 receptor is activated it results in the production of cAMP, which in turn results in the luciferase protein being expressed. When assay incubation is completed the luciferase substrate (luciferin) is added and the enzyme converts luciferin to oxyluciferin to produce bioluminescence. The luminescence is measured as the readout for the assay.
The cells were cultured at 5% CO2 in cell culture medium. They were aliquoted and stored in liquid nitrogen. Before each assay an aliquot was taken up and washed twice in PBS before being suspended at the desired concentration in the assay specific buffer.
The assay buffer consisted of 2% ovalbumin and 0.2% Pluronic F-68 in assay medium.
1) Cell stocks were thawed in a 37° C. water bath.
2) Cells were washed three times in PBS.
3) Cells were counted and adjusted to 5×10^3 cells/50 μl (1×10^5 cells/ml) in assay medium. A 50 μl aliquot of cells was transferred to each well in the assay plate.
4) Stocks of the test compounds and reference compounds were diluted to a concentration of 0.2 μM in assay buffer. […] 8) A 100 μl aliquot of steadylite plus reagent was added to each well of the assay plate. 9) Each assay plate was covered with aluminum foil to protect it from light and shaken for 30 min at room temperature. 10) Each assay plate was read in a BioTek Synergy 2 Multi-Mode Reader. Calculations and Results
The data from the BioTek Synergy 2 Multi-Mode Reader were transferred to GraphPad Prism software. The software performs a non-linear regression (log(agonist) vs response (three parameters)).
A minimum of two replicates were measured for each sample. The reported EC50 values are averages of all of the measured values for each compound.
(In a reporter assay the amount or activity of a reporter protein is the signal.)

Test [2] concerns the target T1, human GLP-1 receptor. The test can be described thus: GLP-1 receptor binding: competitive binding assay (125I-GLP-1, SPA) on isolated membranes at low and high HSA. The procedure:
The purpose of this example is to test the receptor binding of the GLP-1 derivatives in vitro. The receptor binding is a measure of affinity of a derivative for the human GLP-1 receptor.
Each derivative is added in a series of concentrations to isolated membranes containing the human GLP-1 receptor and displacement of the labelled ligand is monitored. The receptor binding is reported as the concentration at which half of the labelled ligand is displaced from the receptor, the IC50 value.
Buffer 1 consisted of 20 mM Na-HEPES plus 10 mM EDTA and pH was adjusted to 7.4. Buffer 2 consisted of 20 mM Na-HEPES plus 0.1 mM EDTA and pH was adjusted to 7.4. Assay buffer consisted of 50 mM HEPES supplemented with 5 mM EGTA, 5 mM MgCl2, 0.005% Tween 20 and pH was adjusted to 7.4. An 8% albumin stock consisted of HSA dissolved at 8% (w/v) in assay buffer. An 0.02% albumin stock consisted of HSA dissolved at 0.02% (w/v) in assay buffer.
The cells express the human GLP-1 receptor.
The cells were grown at 5% CO2 in DMEM, 10% fetal calf serum, 1% Pen/Strep (Penicillin/Streptomycin) and 1.0 mg/ml of the selection marker G418. To make a membrane preparation the cells were grown to approximately 80% confluence. The cells were washed twice in phosphate-buffered saline and harvested. The cells were pelleted using a brief centrifugation and the cell pellet was kept on ice. […] The homogenate was centrifuged for 15 minutes. The pellet was re-suspended (homogenised) in 10 ml buffer 2 and centrifuged. This step was repeated once more. The resulting pellet was re-suspended in buffer 2 and the protein concentration was determined. The membranes were aliquoted and stored at minus 80° C.
1. […] Assay continued with step 3.
2. For the receptor binding assay in the presence of high HSA (2%) 50 μl of the 8% albumin stock was added to each well of an assay plate. Assay continued with step 3.
4. Cell membrane aliquots were thawed and diluted to their working concentration. Fifty μl were added to each well in the assay plate.
5. WGA SPA beads were suspended in assay buffer at 20 mg/ml. The suspension was diluted to 10 mg/ml in assay buffer just prior to addition to the assay plate. Fifty μl were added to each well in the assay plate.
6. […] A 25 μl aliquot was reserved for measuring total counts/well.
7. The assay plate was incubated for 2 h at 30° C.
8. The assay plate was centrifuged for 10 min.
9. The assay plate was read in a Packard TopCount NXT instrument.
The data from the TopCount instrument were transferred to GraphPad Prism software. Individual replicates were analysed using non-linear regression. IC50 values were calculated by the software and reported in nM. The reported values are averages of all of the measured values for each compound.

Where [3] appears, read: high HSA (2.0% final assay concentration), read-out: High HSA IC50.
The mark [4] stands for this setting: low HSA (max. 0.001% final assay concentration), read-out: Low HSA IC50.

EC50 and IC50 data for three compounds are collected here from patent US11572398B2, “GLP-1 derivatives and uses thereof” (Novo Nordisk A/S, priority 2014, dated 2023).

SMILES strings stand for the structures. Where two headings read alike, the source gives them in different places.

T1 sequence (P43220 24-463): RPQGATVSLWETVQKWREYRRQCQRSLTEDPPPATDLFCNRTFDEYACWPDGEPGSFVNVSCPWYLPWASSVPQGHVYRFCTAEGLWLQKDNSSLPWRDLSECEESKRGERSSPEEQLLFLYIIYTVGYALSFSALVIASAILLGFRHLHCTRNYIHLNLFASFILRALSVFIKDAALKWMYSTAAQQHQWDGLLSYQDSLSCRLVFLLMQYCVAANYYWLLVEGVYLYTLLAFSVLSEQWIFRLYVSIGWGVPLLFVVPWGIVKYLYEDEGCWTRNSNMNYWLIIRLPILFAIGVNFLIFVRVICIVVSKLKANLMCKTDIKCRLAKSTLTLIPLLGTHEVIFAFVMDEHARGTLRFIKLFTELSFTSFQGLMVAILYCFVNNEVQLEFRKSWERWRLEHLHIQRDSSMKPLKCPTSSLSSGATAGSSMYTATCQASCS

Take `CC[C@H](C)[C@H](NC(=O)[C@H](Cc1ccccc1)NC(=O)[C@H](CCC(=O)O)NC(=O)[C@H](CCCNC(=N)N)NC(=O)[C@H](C)NC(=O)[C@H](C)NC(=O)[C@H](CCC(N)=O)NC(=O)[C@H](CCC(=O)O)NC(=O)[C@H](CCC(=O)O)NC(=O)[C@H](CC(C)C)NC(=O)[C@H](Cc1ccc(O)cc1)NC(=O)[C@H](CO)NC(=O)[C@H](CO)NC(=O)[C@@H](NC(=O)[C@H](CC(=O)O)NC(=O)[C@H](CO)NC(=O)[C@@H](NC(=O)[C@H](Cc1ccccc1)NC(=O)[C@@H](NC(=O)CNC(=O)[C@H](CCC(=O)O)NC(=O)C(C)(C)NC(=O)[C@@H](N)Cc1c[nH]cn1)[C@@H](C)O)[C@@H](C)O)C(C)C)C(=O)N[C@@H](C)C(=O)N[C@@H](Cc1c[nH]c2ccccc12)C(=O)N[C@@H](CC(C)C)C(=O)N[C@H](C(=O)N[C@@H](CCCNC(=N)N)C(=O)NCC(=O)N[C@@H](CCCNC(=N)N)C(=O)N[C@@H](CCCCNC(=O)CN(CCCNC(=O)COCCOCCNC(=O)COCCOCCNC(=O)COCCOCCNC(=O)COCCOCCNC(=O)COCCOCCNC(=O)CC[C@H](NC(=O)[C@H]1CC[C@H](CNC(=O)CCCNC(=O)CCCCCCCCCCCCCCCS(=O)(=O)O)CC1)C(=O)O)CCCNC(=O)COCCOCCNC(=O)COCCOCCNC(=O)COCCOCCNC(=O)COCCOCCNC(=O)COCCOCCNC(=O)CC[C@H](NC(=O)[C@H]1CC[C@H](CNC(=O)CCCNC(=O)CCCCCCCCCCCCCCCS(=O)(=O)O)CC1)C(=O)O)C(=O)O)C(C)C` [Example 20, N{Epsilon-37}-[2-[bis[3-[[2-[2-[2-[[2-[2-[2-[[2-[2-[2-[[2-[2-[2-[[2-[2-[2-[[(4S)-4-carboxy-4-[[4-[[4-(16-sulfohexadecanoylamino)butanoylamino]methyl]cyclohexanecarbonyl]amino]butanoyl]amino]ethoxy]ethoxy]acetyl]amino]ethoxy]ethoxy]acetyl]amino]ethoxy]ethoxy]acetyl]amino]ethoxy]ethoxy]acetyl]amino]ethoxy]ethoxy]acetyl]amino]propyl]amino]acetyl]-[Aib8,Glu22,Arg26,Arg34,Lys37]-GLP-1-(7-37)-peptide]: in test [1], the EC50 (in general, the concentration that produces a half-maximal response) worked out at 0.0016 nM. Further, the 50% inhibitory concentration (IC50) – broadly, the concentration needed to halve the response being measured – in test [2] (Low HSA IC50, low HSA (max. 0.001% final assay concentration)) was 0.14 nM; in test [2] (setting [3]), 3.7 nM.

On to `CC[C@H](C)[C@H](NC(=O)[C@H](Cc1ccccc1)NC(=O)[C@H](CCC(=O)O)NC(=O)[C@H](CCCNC(=N)N)NC(=O)[C@H](C)NC(=O)[C@H](C)NC(=O)[C@H](CCC(N)=O)NC(=O)[C@H](CCC(=O)O)NC(=O)[C@H](CCC(=O)O)NC(=O)[C@H](CC(C)C)NC(=O)[C@H](Cc1ccc(O)cc1)NC(=O)[C@H](CO)NC(=O)[C@H](CO)NC(=O)[C@@H](NC(=O)[C@H](CC(=O)O)NC(=O)[C@H](CO)NC(=O)[C@@H](NC(=O)[C@H](Cc1ccccc1)NC(=O)[C@@H](NC(=O)CNC(=O)[C@H](CCC(=O)O)NC(=O)C(C)(C)NC(=O)[C@@H](N)Cc1c[nH]cn1)[C@@H](C)O)[C@@H](C)O)C(C)C)C(=O)N[C@@H](C)C(=O)N[C@@H](Cc1c[nH]c2ccccc12)C(=O)N[C@@H](CC(C)C)C(=O)N[C@H](C(=O)N[C@@H](CCCNC(=N)N)C(=O)NCC(=O)N[C@@H](CCCNC(=N)N)C(=O)N[C@@H](CCCCNC(=O)CN(CCCNC(=O)CCOCCOCCOCCOCCOCCOCCOCCOCCOCCOCCOCCOCCNC(=O)[C@@H](N)CCCCNC(=O)[C@@H](N)CCCCNC(=O)CCCCCCCCCCCCCCCCCCC(=O)O)CCCNC(=O)CCOCCOCCOCCOCCOCCOCCOCCOCCOCCOCCOCCOCCNC(=O)[C@@H](N)CCCCNC(=O)[C@@H](N)CCCCNC(=O)CCCCCCCCCCCCCCCCCCC(=O)O)C(=O)O)C(C)C` [Example 8, N{Epsilon-37}-[2-[bis[3-[3-[2-[2-[2-[2-[2-[2-[2-[2-[2-[2-[2-[2-[[(2S)-2-amino-6-[[(2S)-2-amino-6-(19-carboxynonadecanoylamino)hexanoyl]amino]hexanoyl]amino]ethoxy]ethoxy]ethoxy]ethoxy]ethoxy]ethoxy]ethoxy]ethoxy]ethoxy]ethoxy]ethoxy]ethoxy]propanoylamino]propyl]amino]acetyl]-[Aib8,Glu22,Arg26,Arg34,Lys37]-GLP-1-(7-37)-peptide], for which the half-maximal effective concentration (EC50) in test [1] amounted to 0.01 nM. Moreover, the results for the IC50 in test [2] (setting [3]) and in test [2] (setting [4]) were 27 nM and 0.19 nM, respectively.

Take `CC[C@H](C)[C@H](NC(=O)[C@H](Cc1ccccc1)NC(=O)[C@H](CCC(=O)O)NC(=O)[C@H](CCCNC(=N)N)NC(=O)[C@H](C)NC(=O)[C@H](C)NC(=O)[C@H](CCC(N)=O)NC(=O)[C@H](CCC(=O)O)NC(=O)[C@H](CCC(=O)O)NC(=O)[C@H](CC(C)C)NC(=O)[C@H](Cc1ccc(O)cc1)NC(=O)[C@H](CO)NC(=O)[C@H](CO)NC(=O)[C@@H](NC(=O)[C@H](CC(=O)O)NC(=O)[C@H](CO)NC(=O)[C@@H](NC(=O)[C@H](Cc1ccccc1)NC(=O)[C@@H](NC(=O)CNC(=O)[C@H](CCC(=O)O)NC(=O)C(C)(C)NC(=O)[C@@H](N)Cc1c[nH]cn1)[C@@H](C)O)[C@@H](C)O)C(C)C)C(=O)N[C@@H](C)C(=O)N[C@@H](Cc1c[nH]c2ccccc12)C(=O)N[C@@H](CC(C)C)C(=O)N[C@H](C(=O)N[C@@H](CCCNC(=N)N)C(=O)NCC(=O)N[C@@H](CCCNC(=N)N)C(=O)N[C@@H](CCCCNC(=O)CN(CCCNC(=O)COCCOCCNC(=O)COCCOCCNC(=O)COCCOCCNC(=O)COCCOCCNC(=O)[C@@H](N)CCCCNC(=O)[C@@H](N)CCCCNC(=O)CCCNC(=O)CCCCCCCCCCCCCCCS(=O)(=O)O)CCCNC(=O)COCCOCCNC(=O)COCCOCCNC(=O)COCCOCCNC(=O)COCCOCCNC(=O)[C@@H](N)CCCCNC(=O)[C@@H](N)CCCCNC(=O)CCCNC(=O)CCCCCCCCCCCCCCCS(=O)(=O)O)C(=O)O)C(C)C` [Example 14, N{Epsilon-37}-[2-[bis[3-[[2-[2-[2-[[2-[2-[2-[[2-[2-[2-[[2-[2-[2-[[(2S)-2-amino-6-[[(2S)-2-amino-6-[4-(16-sulfohexadecanoylamino)butanoylamino]hexanoyl]amino]hexanoyl]amino]ethoxy]ethoxy]acetyl]amino]ethoxy]ethoxy]acetyl]amino]ethoxy]ethoxy]acetyl]amino]ethoxy]ethoxy]acetyl]amino]propyl]amino]acetyl]-[Aib8,Glu22,Arg26,Arg34,Lys37]-GLP-1-(7-37)-peptide]: the half-maximal effective concentration (EC50) in test [1] amounted to 0.0063 nM. Moreover, the half-inhibitory concentration (IC50) in test [2] (setting [4]) turned out to be 0.04 nM.
